# In publication PMC6789174 (Drug Design, Development and Therapy, 2019):
# Key:
# [1] = ABTS free radical scavenging
# [2] = system: Agrobacterium tumefaction; assay: Anti-bacterial activity, agar well diffusion; format: cell-based; conditions: for MIC: read-out: MIC, Agrobacterium tumefaction; for zone of inhibition at 10 µg/mL / zone of inhibition at 20 µg/mL / zone of inhibition at 30 µg/mL: read-out: ZI (Zone of inhibition), Agrobacterium tumefaction
# [3] = molecular target: T1, glucose-6-phosphatase (Homo sapiens, UniProt P35575); assay: Glucose-6-phosphatase activity; format: biochemical; conditions: for Total Activity of glucose-6-phosphatase: 33°C, pH 6.7, control 72.0
# T1 sequence (P35575 1-357): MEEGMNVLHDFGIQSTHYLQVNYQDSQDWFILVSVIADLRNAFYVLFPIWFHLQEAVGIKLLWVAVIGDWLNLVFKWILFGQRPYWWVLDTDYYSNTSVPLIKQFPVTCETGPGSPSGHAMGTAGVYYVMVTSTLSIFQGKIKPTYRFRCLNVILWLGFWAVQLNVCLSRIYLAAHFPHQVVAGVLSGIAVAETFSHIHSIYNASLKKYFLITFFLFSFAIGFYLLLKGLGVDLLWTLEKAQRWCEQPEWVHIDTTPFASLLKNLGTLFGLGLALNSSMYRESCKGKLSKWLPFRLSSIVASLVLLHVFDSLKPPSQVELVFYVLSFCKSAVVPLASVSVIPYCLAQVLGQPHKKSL
# [4] = system: Proteus vulgaris; assay: Anti-bacterial activity, agar well diffusion; format: cell-based; conditions: for MIC: read-out: MIC, Proteus vulgaris; for zone of inhibition at 10 µg/mL / zone of inhibition at 20 µg/mL / zone of inhibition at 30 µg/mL: read-out: ZI (Zone of inhibition), Proteus vulgaris
# [5] = DPPH free radical scavenging
# [6] = molecular target: Acetylcholinesterase (Homo sapiens, UniProt P22303); assay: biochemical; conditions: for inhibition at 125 µg/mL / inhibition at 250 µg/mL / inhibition at 500 µg/mL / inhibition at 1000 µg/mL: read-out: %AChE Inhibition (mean ± SEM)
# Chain of Acetylcholinesterase (P22303 32-614, species assumed): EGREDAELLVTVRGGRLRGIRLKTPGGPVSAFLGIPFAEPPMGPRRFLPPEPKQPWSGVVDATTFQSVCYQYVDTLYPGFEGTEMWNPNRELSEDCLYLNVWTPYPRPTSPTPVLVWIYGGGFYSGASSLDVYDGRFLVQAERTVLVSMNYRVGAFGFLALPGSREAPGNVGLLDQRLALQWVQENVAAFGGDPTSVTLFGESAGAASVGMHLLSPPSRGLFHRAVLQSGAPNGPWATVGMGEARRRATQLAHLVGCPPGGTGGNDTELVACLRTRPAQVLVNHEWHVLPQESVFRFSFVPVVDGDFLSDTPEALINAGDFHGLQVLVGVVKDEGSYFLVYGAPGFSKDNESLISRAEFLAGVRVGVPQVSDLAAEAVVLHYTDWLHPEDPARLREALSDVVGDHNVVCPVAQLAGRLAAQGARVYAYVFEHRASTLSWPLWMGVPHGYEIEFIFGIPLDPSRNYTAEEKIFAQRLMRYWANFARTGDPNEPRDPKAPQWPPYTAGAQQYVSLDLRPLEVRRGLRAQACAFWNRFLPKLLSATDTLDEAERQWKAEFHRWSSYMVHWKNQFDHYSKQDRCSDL
# [7] = molecular target: Butyrylcholinesterase (Homo sapiens, UniProt P06276); assay: Anticholinesterase assay; format: biochemical; conditions: for inhibition at 125 µg/mL / inhibition at 250 µg/mL / inhibition at 500 µg/mL / inhibition at 1000 µg/mL: read-out: %BChE Inhibition (mean ± SEM)
# Chain of Butyrylcholinesterase (P06276 29-602): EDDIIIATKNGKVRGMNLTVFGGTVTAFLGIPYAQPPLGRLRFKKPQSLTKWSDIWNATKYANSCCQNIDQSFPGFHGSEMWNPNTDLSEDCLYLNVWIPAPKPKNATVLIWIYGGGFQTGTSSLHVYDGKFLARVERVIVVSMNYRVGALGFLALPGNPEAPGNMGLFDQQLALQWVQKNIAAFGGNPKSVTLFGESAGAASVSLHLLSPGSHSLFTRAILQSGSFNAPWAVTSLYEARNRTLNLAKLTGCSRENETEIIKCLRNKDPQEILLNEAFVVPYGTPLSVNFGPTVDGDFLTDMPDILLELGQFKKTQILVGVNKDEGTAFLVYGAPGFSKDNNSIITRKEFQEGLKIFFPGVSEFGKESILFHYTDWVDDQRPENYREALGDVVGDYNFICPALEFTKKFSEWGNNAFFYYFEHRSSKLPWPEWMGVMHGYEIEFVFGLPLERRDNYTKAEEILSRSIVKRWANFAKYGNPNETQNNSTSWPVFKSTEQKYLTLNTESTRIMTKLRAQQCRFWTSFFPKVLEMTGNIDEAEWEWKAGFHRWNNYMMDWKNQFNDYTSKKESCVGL
# [8] = molecular target: T2, porcine α-amylase (Sus scrofa, UniProt P00690); assay: biochemical; conditions: for inhibition at 125 µg/mL: read-out: %Inhibition (mean ± SEM), alpha amylase, concentration 125 µg/mL; for inhibition at 250 µg/mL: read-out: %Inhibition (mean ± SEM), alpha amylase, concentration 250 µg/mL; for inhibition at 1000 µg/mL: read-out: %Inhibition (mean ± SEM), alpha amylase, concentration 1000 µg/mL
# T2 sequence (P00690 16-511): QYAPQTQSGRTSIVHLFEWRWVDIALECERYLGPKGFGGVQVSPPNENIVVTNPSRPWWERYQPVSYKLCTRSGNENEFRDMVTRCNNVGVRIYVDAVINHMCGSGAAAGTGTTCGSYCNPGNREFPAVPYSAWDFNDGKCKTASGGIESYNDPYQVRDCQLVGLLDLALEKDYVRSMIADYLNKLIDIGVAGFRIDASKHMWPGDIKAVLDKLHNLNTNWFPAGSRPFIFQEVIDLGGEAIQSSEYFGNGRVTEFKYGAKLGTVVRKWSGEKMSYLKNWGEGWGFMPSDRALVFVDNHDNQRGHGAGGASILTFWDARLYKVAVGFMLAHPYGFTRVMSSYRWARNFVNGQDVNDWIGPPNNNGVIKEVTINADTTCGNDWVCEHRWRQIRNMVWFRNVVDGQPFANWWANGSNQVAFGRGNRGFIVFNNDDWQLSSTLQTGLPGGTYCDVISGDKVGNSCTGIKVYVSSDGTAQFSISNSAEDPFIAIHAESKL
# [9] = system: Staphylococcus aureus; assay: Anti-bacterial activity, agar well diffusion; format: cell-based; conditions: for MIC: read-out: MIC, Staphylococcus aureus; for zone of inhibition at 10 µg/mL / zone of inhibition at 20 µg/mL / zone of inhibition at 30 µg/mL: read-out: ZI (Zone of inhibition), Staphylococcus aureus
smiles,measurement,setting,value
"S=C(Nc1ccccc1)NC(c1ccccn1)C(Cc1ccccc1)Cc1ccccc1 (stereo not drawn) [Compound III, 1-(2-benzyl-3-phenyl-1-(pyridine-2-yl)propyl)-3-phenylthiourea]",ABTS IC50,[1],80 µg/mL
same,ABTS % I (mean ± S.E.M),[1]; concentration 125 μg/mL,64.77 ±0.087%
same,ABTS % I (mean ± S.E.M),[1]; concentration 250 μg/mL,66.25 ±0.123%
same,ABTS % I (mean ± S.E.M),[1]; concentration 500 μg/mL,68.27 ± 0.532%
same,ABTS % I (mean ± S.E.M),[1]; concentration 1000 μg/mL,69.11 ± 0.234%
same,MIC,[2],11.6 µg/mL
same,zone of inhibition at 10 µg/mL,[2],15 mm
same,zone of inhibition at 20 µg/mL,[2],20 mm
same,zone of inhibition at 30 µg/mL,[2],26 mm
same,Total Activity of glucose-6-phosphatase,[3]; concentration 125 µg/mL,32.04 mg of P released per hour
same,Total Activity of glucose-6-phosphatase,[3]; concentration 250 µg/mL,28.35 mg of P released per hour
same,Total Activity of glucose-6-phosphatase,[3]; concentration 500 µg/mL,27.10 mg of P released per hour
same,MIC,[4],15 µg/mL
same,zone of inhibition at 10 µg/mL,[4],12 mm
same,zone of inhibition at 20 µg/mL,[4],16 mm
same,zone of inhibition at 30 µg/mL,[4],22 mm
same,DPPH IC50,[5],79 µg/mL
same,DPPH % I (mean ± S.E.M),[5]; concentration 125 μg/mL,61.14±0.177%
same,DPPH % I (mean ± S.E.M),[5]; concentration 250 μg/mL,64.74 ± 0.267%
same,DPPH % I (mean ± S.E.M),[5]; concentration 500 μg/mL,66.07 ± 0.283%
same,DPPH % I (mean ± S.E.M),[5]; concentration 1000 μg/mL,67.45 ± 0.095%
same,IC50,[6],144 µM
same,inhibition at 125 µg/mL,[6],62.2 ± 1.12%
same,inhibition at 250 µg/mL,[6],66.5 ± 2.08%
same,inhibition at 500 µg/mL,[6],75.7 ± 1.15%
same,inhibition at 1000 µg/mL,[6],84.3 ± 1.12%
same,IC50,[7],183 µM
same,inhibition at 125 µg/mL,[7],58.3 ± 1.06%
same,inhibition at 250 µg/mL,[7],61.8 ± 1.54%
same,inhibition at 500 µg/mL,[7],63.8 ± 1.53%
same,inhibition at 1000 µg/mL,[7],68.5 ± 1.07%
same,IC50,[8],263 µM
same,"%Inhibition (mean ± SEM), alpha amylase",[8]; concentration 250 μg/mL,57.91 ± 0.43%
same,inhibition at 125 µg/mL,[8],50.1 ± 2.11%
same,inhibition at 250 µg/mL,[8],62.5 ± 1.24%
same,inhibition at 1000 µg/mL,[8],65.8 ± 1.13%
same,MIC,[9],14.9 µg/mL
same,zone of inhibition at 10 µg/mL,[9],15 mm
same,zone of inhibition at 20 µg/mL,[9],16 mm
same,zone of inhibition at 30 µg/mL,[9],19 mm
"Fc1ccccc1NC(=S)Nc1ccccc1 [Compound V, 1-(2-fluorophenyl)-3-phenylthiourea]",ABTS IC50,[1],85 µg/mL
same,ABTS % I (mean ± S.E.M),[1]; concentration 125 μg/mL,69.45 ± 1.29%
same,ABTS % I (mean ± S.E.M),[1]; concentration 250 μg/mL,71.14 ± 1.90%
same,ABTS % I (mean ± S.E.M),[1]; concentration 500 μg/mL,73.18 ± 1.46%
same,ABTS % I (mean ± S.E.M),[1]; concentration 1000 μg/mL,75.04 ± 0.10%
same,MIC,[2],11.6 µg/mL
same,zone of inhibition at 10 µg/mL,[2],15 mm
same,zone of inhibition at 20 µg/mL,[2],20 mm
same,zone of inhibition at 30 µg/mL,[2],25 mm
same,"Glucose-6-phosphatase inhibition, in words",[3]; compared to control experiments,most potent inhibitors
same,Total Activity of glucose-6-phosphatase,[3]; concentration 125 µg/mL,05.66 mg of P released per hour
same,Total Activity of glucose-6-phosphatase,[3]; concentration 250 µg/mL,05.21 mg of P released per hour
same,Total Activity of glucose-6-phosphatase,[3]; concentration 500 µg/mL,04.16 mg of P released per hour
same,MIC,[4],8.94 µg/mL
same,zone of inhibition at 10 µg/mL,[4],16 mm
same,zone of inhibition at 20 µg/mL,[4],21 mm
same,zone of inhibition at 30 µg/mL,[4],24 mm
same,DPPH IC50,[5],70 µg/mL
same,DPPH % I (mean ± S.E.M),[5]; concentration 125 μg/mL,68.83 ± 1.53%
same,DPPH % I (mean ± S.E.M),[5]; concentration 250 μg/mL,70.55 ± 1.27%
same,DPPH % I (mean ± S.E.M),[5]; concentration 500 μg/mL,71.50 ± 1.61%
same,DPPH % I (mean ± S.E.M),[5]; concentration 1000 μg/mL,73.14 ± 1.10%
same,IC50,[6],739 µM
same,inhibition at 125 µg/mL,[6],51.8 ± 1.72%
same,inhibition at 250 µg/mL,[6],56.3 ± 2.14%
same,inhibition at 500 µg/mL,[6],68.2 ± 1.25%
same,inhibition at 1000 µg/mL,[6],70.2 ± 1.09%
same,IC50,[7],406 µM
same,inhibition at 125 µg/mL,[7],53.07 ± 0.48%
same,inhibition at 250 µg/mL,[7],55.1 ± 1.04%
same,inhibition at 500 µg/mL,[7],59.1 ± 1.76%
same,inhibition at 1000 µg/mL,[7],62.7 ± 1.22%
same,IC50,[8],406 µM
same,inhibition at 125 µg/mL,[8],52.1 ± 2.11%
same,inhibition at 250 µg/mL,[8],55.91 ± 0.43%
same,inhibition at 500 µg/mL,"[8]; read-out: %Inhibition (mean ± SEM), alpha amylase, concentration 500 µg/mL",59.5 ± 1.24%
same,inhibition at 1000 µg/mL,[8],62.8 ± 1.13%
same,MIC,[9],24.1 µg/mL
same,zone of inhibition at 10 µg/mL,[9],12 mm
same,zone of inhibition at 20 µg/mL,[9],14 mm
same,zone of inhibition at 30 µg/mL,[9],16 mm
"COc1ccc2c3c1O[C@H]1C[C@@H](O)C=C[C@@]31CCN(C)C2 [Galantamine, reference compound]",%BChE Inhibition (mean ± SEM),[7]; concentration 500 μg/mL,87.16 ± 1.23%
same,inhibition at 125 µg/mL,[7],64.8 ± 0.73%
same,inhibition at 1000 µg/mL,[7],92.3 ± 0.74%
